Laboratory results taken from PubChem BioAssay (NCI).
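Five compound concentrations were applied to cells in 96-well plates for 48 hours; endpoints were derived by simple linear interpolation of the resulting dose-response curve. TGI marks complete inhibition of growth.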

Tests used:
Assay in all cases: NCI-60 cell line screen, 48 h
[1] = test system: BT-549 breast
[2] = test system: SNB-19 CNS
[3] = test system: MDA-MB-435
[4] = test system: OVCAR-5 ovarian
[5] = test system: M14 melanoma
[6] = test system: ACHN renal
[7] = test system: SK-MEL-5 melanoma
[8] = test system: HT29 colon
[9] = test system: KM12 colon
[10] = test system: DU-145 prostate
[11] = test system: T-47D breast
[12] = test system: UACC-257 melanoma
[13] = test system: UO-31 renal
[14] = test system: RXF 393 renal
[15] = test system: CAKI-1 renal
[16] = test system: MOLT-4 leukemia
[17] = test system: HCT-15 colon
[18] = test system: SF-295 CNS
[19] = test system: EKVX NSCLC
[20] = test system: HCT-116 colon
[21] = test system: MALME-3M melanoma
[22] = test system: SK-OV-3 ovarian
[23] = test system: A549 NSCLC
[24] = test system: SF-539 CNS
[25] = test system: HOP-92 NSCLC
[26] = test system: TK-10 renal
[27] = test system: SK-MEL-2 melanoma
[28] = test system: SN12C renal
[29] = test system: LOX IMVI melanoma
[30] = test system: OVCAR-3 ovarian
[31] = test system: SF-268 CNS
[32] = test system: UACC-62 melanoma
[33] = test system: MDA-N
[34] = test system: MCF7 breast
[35] = test system: SW-620 colon
[36] = test system: K-562 leukemia
[37] = test system: U251 CNS
[38] = test system: OVCAR-4 ovarian
[39] = test system: A498 renal
[40] = test system: HOP-62 NSCLC
[41] = test system: NCI-H460 lung
[42] = test system: 786-0 renal
[43] = test system: HCC-2998 colon
[44] = test system: COLO 205 colon
[45] = test system: OVCAR-8 ovarian
[46] = test system: SNB-75 CNS
[47] = test system: NCI/ADR-RES ovarian
[48] = test system: CCRF-CEM leukemia
[49] = test system: HS 578T breast
[50] = test system: SK-MEL-28 melanoma
[51] = test system: NCI-H226 lung
[52] = test system: NCI-H23 lung
[53] = test system: NCI-H522 lung
[54] = test system: IGROV1 ovarian
[55] = test system: PC-3 prostate
[56] = test system: HL-60(TB) leukemia
[57] = test system: MDA-MB-231 breast
[58] = test system: RPMI-8226 leukemia

## C=C1CC2[C@H](C)C(=O)CCC2(C)C2=C1C1CCC(C(C)CCC(=C)C(C)C(=O)O)C1(C)CC2=O (stereo partly drawn)
[1]
  TGI: > 100 µM
[2]
  TGI: > 100 µM
[3]
  TGI: > 100 µM
[4]
  TGI: > 100 µM
[5]
  TGI: > 100 µM
[6]
  TGI: > 100 µM
[7]
  TGI: > 100 µM
[8]
  TGI: > 100 µM
[9]
  TGI: > 100 µM
[10]
  TGI: > 100 µM
[11]
  TGI: > 100 µM
[12]
  TGI: 96 µM
[13]
  TGI: 99.4 µM
[14]
  TGI: 86.4 µM
[15]
  TGI: > 100 µM
[16]
  TGI: 63.1 µM
[17]
  TGI: > 100 µM
[18]
  TGI: > 100 µM
[19]
  TGI: > 100 µM
[20]
  TGI: > 100 µM
[21]
  TGI: > 100 µM
[22]
  TGI: > 100 µM
[23]
  TGI: > 100 µM
[24]
  TGI: > 100 µM
[25]
  TGI: 85.2 µM
[26]
  TGI: > 100 µM
[27]
  TGI: > 100 µM
[28]
  TGI: > 100 µM
[29]
  TGI: 33.8 µM
[30]
  TGI: > 100 µM
[31]
  TGI: > 100 µM
[32]
  TGI: > 100 µM
[33]
  TGI: > 100 µM
[34]
  TGI: > 100 µM
[35]
  TGI: > 100 µM
[36]
  TGI: 28.7 µM
[37]
  TGI: > 100 µM
[38]
  TGI: > 100 µM
[39]
  TGI: > 100 µM
[40]
  TGI: > 100 µM
[41]
  TGI: > 100 µM
[42]
  TGI: 40.1 µM
[43]
  TGI: > 100 µM
[44]
  TGI: > 100 µM
[45]
  TGI: > 100 µM
[46]
  TGI: > 100 µM
[47]
  TGI: > 100 µM
[48]
  TGI: 30.3 µM
[49]
  TGI: > 100 µM
[50]
  TGI: > 100 µM
[51]
  TGI: > 100 µM
[52]
  TGI: > 100 µM
[53]
  TGI: > 100 µM
[54]
  TGI: > 100 µM
[55]
  TGI: > 100 µM
[56]
  TGI: 31.4 µM
[57]
  TGI: > 100 µM

## COC(=O)c1ccc(NCC2=C(Br)C(=O)C=CC2=O)cc1Cl
[1]
  TGI: 26.1 µM
[2]
  TGI: > 100 µM
[3]
  TGI: 38.1 µM
[4]
  TGI: 36.7 µM
[5]
  TGI: 32.1 µM
[6]
  TGI: 30.7 µM
[7]
  TGI: 41.1 µM
[8]
  TGI: 32.6 µM
[9]
  TGI: > 100 µM
[10]
  TGI: 42.5 µM
[11]
  TGI: 38.6 µM
[12]
  TGI: 72.2 µM
[13]
  TGI: 34.7 µM
[15]
  TGI: 70.6 µM
[16]
  TGI: > 100 µM
[17]
  TGI: 29.2 µM
[18]
  TGI: > 100 µM
[19]
  TGI: 27.9 µM
[20]
  TGI: 31.9 µM
[21]
  TGI: 28.4 µM
[22]
  TGI: > 100 µM
[23]
  TGI: > 100 µM
[24]
  TGI: 35.7 µM
[25]
  TGI: 29.1 µM
[58]
  TGI: > 100 µM
[26]
  TGI: 30.9 µM
[27]
  TGI: 52.6 µM
[28]
  TGI: 30.1 µM
[29]
  TGI: 28.1 µM
[30]
  TGI: 26.8 µM
[31]
  TGI: 35.1 µM
[32]
  TGI: 33.8 µM
[33]
  TGI: 35.8 µM
[34]
  TGI: 30.9 µM
[35]
  TGI: 30.8 µM
[36]
  TGI: > 100 µM
[37]
  TGI: 43.6 µM
[38]
  TGI: 62.3 µM
[39]
  TGI: > 100 µM
[41]
  TGI: 32.2 µM
[42]
  TGI: 26.1 µM
[43]
  TGI: > 100 µM
[44]
  TGI: 31.6 µM
[45]
  TGI: 47.1 µM
[46]
  TGI: > 100 µM
[47]
  TGI: 75.4 µM
[48]
  TGI: > 100 µM
[49]
  TGI: > 100 µM
[50]
  TGI: 33.6 µM
[51]
  TGI: > 100 µM
[52]
  TGI: 45.8 µM
[53]
  TGI: 21.2 µM
[54]
  TGI: 30.5 µM
[55]
  TGI: 43.8 µM
[56]
  TGI: > 100 µM
[57]
  TGI: 34.8 µM

## FC(F)(F)c1ccc2nc(Sc3ccc4ccccc4c3)cnc2c1
[1]
  TGI: > 100 µM
[2]
  TGI: > 100 µM
[3]
  TGI: > 100 µM
[4]
  TGI: > 100 µM
[5]
  TGI: > 100 µM
[6]
  TGI: > 100 µM
[7]
  TGI: > 100 µM
[8]
  TGI: > 100 µM
[9]
  TGI: > 100 µM
[10]
  TGI: > 100 µM
[11]
  TGI: > 100 µM
[12]
  TGI: > 100 µM
[13]
  TGI: > 100 µM
[14]
  TGI: 92.6 µM
[15]
  TGI: > 100 µM
[16]
  TGI: > 100 µM
[17]
  TGI: > 100 µM
[18]
  TGI: > 100 µM
[19]
  TGI: > 100 µM
[20]
  TGI: > 100 µM
[21]
  TGI: > 100 µM
[22]
  TGI: > 100 µM
[23]
  TGI: > 100 µM
[24]
  TGI: > 100 µM
[25]
  TGI: > 100 µM
[26]
  TGI: > 100 µM
[27]
  TGI: 66.3 µM
[28]
  TGI: > 100 µM
[29]
  TGI: > 100 µM
[31]
  TGI: > 100 µM
[32]
  TGI: > 100 µM
[33]
  TGI: > 100 µM
[34]
  TGI: 95 µM
[35]
  TGI: > 100 µM
[36]
  TGI: > 100 µM
[37]
  TGI: > 100 µM
[38]
  TGI: > 100 µM
[39]
  TGI: > 100 µM
[40]
  TGI: > 100 µM
[41]
  TGI: > 100 µM
[42]
  TGI: > 100 µM
[43]
  TGI: > 100 µM
[44]
  TGI: > 100 µM
[45]
  TGI: > 100 µM
[46]
  TGI: > 100 µM
[47]
  TGI: > 100 µM
[48]
  TGI: > 100 µM
[49]
  TGI: > 100 µM
[50]
  TGI: > 100 µM
[51]
  TGI: > 100 µM
[52]
  TGI: > 100 µM
[53]
  TGI: > 100 µM
[54]
  TGI: > 100 µM
[56]
  TGI: > 100 µM
[57]
  TGI: > 100 µM
